From patent US12503453B2, “USP7 inhibition” (Dana-Farber Cancer Institute, Inc., priority 2018, dated 2025) come the findings set out here.

pIC50: −log10 of the molar value.

For experiment [1], the target named is USP7 catalytic domain (Homo sapiens (Human), UniProt Q93009). In words: MS labeling of purified USP7 catalytic domain (intact MS, CE-MS). Type of experiment: binding. On the procedure: Purified USP7 catalytic domain was diluted to 20 μM in 10 μL labeling buffer (20 mM HEPES pH 7.5, 150 mM NaCl, 1 mM TCEP) and incubated for the indicated times with 50 μM (2.5×) compound. After incubation, samples were flash frozen in liquid nitrogen and stored at −80° C. until analysis.
Sequence of USP7 catalytic domain (Q93009 208-560): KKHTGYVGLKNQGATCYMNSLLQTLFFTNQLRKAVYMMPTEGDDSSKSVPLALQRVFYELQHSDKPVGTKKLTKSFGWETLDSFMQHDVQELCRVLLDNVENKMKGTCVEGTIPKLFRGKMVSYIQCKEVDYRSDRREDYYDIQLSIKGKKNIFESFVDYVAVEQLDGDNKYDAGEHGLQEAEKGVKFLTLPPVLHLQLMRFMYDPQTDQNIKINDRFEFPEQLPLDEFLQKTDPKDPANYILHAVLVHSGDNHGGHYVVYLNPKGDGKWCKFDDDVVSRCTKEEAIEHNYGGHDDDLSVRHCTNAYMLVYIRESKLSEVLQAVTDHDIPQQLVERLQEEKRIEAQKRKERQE
Intact mass analysis was performed by injecting 5 μg USP7 catalytic domain onto a self-packed reversed phase column ( 1/32″ O.D.×500 um I.D., 5 cm of POROS 10R2 resin). After desalting, protein was eluted with an HPLC gradient (0-100% B in 4 minutes, A=0.2M acetic acid in water, B=0.2 M acetic acid in acetonitrile, flow rate ˜30 μL/min) into an LTQ ion trap mass spectrometer (ThermoFisher Scientific, San Jose, CA). Mass spectra were deconvoluted using MagTran1.03b2 software. Zhang, Z. & Marshall, A. G. A universal algorithm for fast and automated charge state deconvolution of electrospray mass-to-charge ratio spectra. J. Am. Soc. Mass Spectrom. 9, 225-233 (1998).
To identify sites of covalent modification, treated protein was reduced (10 mM dithiothreitol), alkylated (22.5 mM iodoacetamide), and digested with trypsin overnight at 37° C. Peptides were desalted using SP3 (Hughes, C. S. et al. Ultrasensitive proteome analysis using paramagnetic bead technology. Mol. Syst. Biol. 10, 757-757 (2014)), dried by vacuum centrifugation, and reconstituted in 1% formic acid/50% acetonitrile with 100 mM ammonium acetate. Peptides were then analyzed by CE-MS using a ZipChip CE system and autosampler (908 Devices, Boston, MA) interfaced to a QExactive HF mass spectrometer (ThermoFisher Scientific, San Jose, CA). Peptide solution was loaded for 30 seconds, and the mass spectrometer was operated in data dependent mode and subjected the 5 most abundant ions in each MS scan (60 k resolution, 3E6 target, lock mass enabled) to MS/MS (15 k resolution, 1E5 target, 100 ms max inject time). Dynamic exclusion was enabled with a repeat count of 1 and an exclusion time of 6 seconds. […]

For experiment [2], the target named is USP7 (Homo sapiens (Human), UniProt Q93009). The experiment can be described thus: Live cell treatment and competitive ABPP with HA-Ub-VS. Type of experiment: cell-based. Particulars: live cell treatment, 6 hr; read-out: IC50 of USP7 inhibition in cyto. On the procedure:
HA-Ub-VS experiments were performed as previously described in Lamberto, I. et al. Structure-Guided Development of a Potent and […] Selective Non-covalent Active-Site Inhibitor of USP7. Cell Chem. Biol. 24, 1490-1500 (2017). Briefly, target engagement lysis buffer (50 mM Tris pH 8.0, 150 mM NaCl, 5 mM MgCl2, 0.5 mM EDTA, 0.5% NP-40, 10% glycerol, 1 mM TCEP, protease and phosphatase inhibitors) was added to cell pellets on ice. Lysate was cleared by centrifugation and diluted to 1.67 mg/mL. Where indicated, 30 μL lysate was then incubated with inhibitors or DMSO for the indicated timepoints. 1 μM HA-Ub-VS was then added to the lysate and incubated at RT for the indicated time points. Labeling reactions were quenched with 4×LDS sample buffer (Thermo Fisher B0007) supplemented with 10% BME, vortexed vigorously, and heated to 95° C. for 5 minutes. Samples were resolved by SDS-PAGE and analyzed by Western blot with the indicated antibodies.

In experiment [3] the test system is MDM2-p53 signaling axis in MCF7 cells. The experiment can be described thus: Whole cell lysate Western blots of MCF7 cells (MDM2-p53 signaling axis). Type of experiment: cell-based. Particulars: wild-type TP53.
In experiment [4] the test system is p53 target genes in MCF7 cells. In words: Quantitative real-time PCR of MCF7 cells. Particulars: 1 μM, 6 or 24 hours. Type of experiment: cell-based. As to the method: After cell treatment under the indicated conditions, total cellular RNA was purified using a Qiagen RNEasy kit. 1 μg of RNA was then converted to cDNA using SuperScript III First-Strand Synthesis (Invitrogen). cDNA from each sample was then combined with the indicated TaqMan probe and 2× MasterMix in a 96-well Fast RT-PCR plate (Invitrogen). qPCR was performed on an Invitrogen 7500 Fast qPCR instrument and gene expression was calculated using the 2^−ΔΔct method on Graphpad Prism.
For orientation: In qPCR the cycle at which signal appears reflects the starting amount.

Experiment [5] deals with USP7-F291N (Homo sapiens (Human), UniProt Q93009, F291N). The experiment can be described thus: Ub-AMC assay with mutant USP7-F291N. Type of experiment: biochemical. Particulars: 6-hr pre-incubation. On the procedure:
Full length USP7 was tested for its activity in Ubiquitin-AMC assay in presence or absence of inhibitors. USP7 (5 nM) was pre-incubated for 6 hours at room temperature with different concentrations of inhibitors or DMSO as a control in 50 mM HEPES pH 7.5, 0.5 mM EDTA, 11 μM ovalbumin, and 5 mM DTT. Ubiquitin-AMC (Boston Biochem) was then added to a final concentration of 500 nM. The initial rate of the reaction was measured by collecting fluorescence data at one minute intervals over 30-minute period using a Clariostar fluorescence plate reader at excitation and emission wavelength of 345 and 445 nm respectively. The calculated initial rate values were plotted against inhibitor concentrations to determine IC50s. All the experimental data were plotted using Prism GraphPad. All assays for each compound were performed at least twice for each compound.

Experiment [6] has as its system TC32 cells. In words: Cell proliferation (CellTiter-Glo), TC32. Type of experiment: cell-based. The note with it: TP53 wild-type, 3 days. On the procedure:
(§1) Cells were plated in 384-well culture-treated plates and allowed to settle overnight. After drug treatment and appropriate incubation time, cell viability was assessed using the CellTiter-Glo Luminescent Cell Viability Assay (Promega). Luminescence was read on a Fluostar Omega Reader (BMG Labtech).
(In general: Cellular ATP, detected with luciferase, serves as a proxy for viable cell number.)

For experiment [7], the system named is A673 cells. In words: Cell proliferation (CellTiter-Glo), A673. Type of experiment: cell-based. The note with it: TP53-mutant, 3 days. As to the method: as §1

Sequence of USP7 (Q93009 whole entry): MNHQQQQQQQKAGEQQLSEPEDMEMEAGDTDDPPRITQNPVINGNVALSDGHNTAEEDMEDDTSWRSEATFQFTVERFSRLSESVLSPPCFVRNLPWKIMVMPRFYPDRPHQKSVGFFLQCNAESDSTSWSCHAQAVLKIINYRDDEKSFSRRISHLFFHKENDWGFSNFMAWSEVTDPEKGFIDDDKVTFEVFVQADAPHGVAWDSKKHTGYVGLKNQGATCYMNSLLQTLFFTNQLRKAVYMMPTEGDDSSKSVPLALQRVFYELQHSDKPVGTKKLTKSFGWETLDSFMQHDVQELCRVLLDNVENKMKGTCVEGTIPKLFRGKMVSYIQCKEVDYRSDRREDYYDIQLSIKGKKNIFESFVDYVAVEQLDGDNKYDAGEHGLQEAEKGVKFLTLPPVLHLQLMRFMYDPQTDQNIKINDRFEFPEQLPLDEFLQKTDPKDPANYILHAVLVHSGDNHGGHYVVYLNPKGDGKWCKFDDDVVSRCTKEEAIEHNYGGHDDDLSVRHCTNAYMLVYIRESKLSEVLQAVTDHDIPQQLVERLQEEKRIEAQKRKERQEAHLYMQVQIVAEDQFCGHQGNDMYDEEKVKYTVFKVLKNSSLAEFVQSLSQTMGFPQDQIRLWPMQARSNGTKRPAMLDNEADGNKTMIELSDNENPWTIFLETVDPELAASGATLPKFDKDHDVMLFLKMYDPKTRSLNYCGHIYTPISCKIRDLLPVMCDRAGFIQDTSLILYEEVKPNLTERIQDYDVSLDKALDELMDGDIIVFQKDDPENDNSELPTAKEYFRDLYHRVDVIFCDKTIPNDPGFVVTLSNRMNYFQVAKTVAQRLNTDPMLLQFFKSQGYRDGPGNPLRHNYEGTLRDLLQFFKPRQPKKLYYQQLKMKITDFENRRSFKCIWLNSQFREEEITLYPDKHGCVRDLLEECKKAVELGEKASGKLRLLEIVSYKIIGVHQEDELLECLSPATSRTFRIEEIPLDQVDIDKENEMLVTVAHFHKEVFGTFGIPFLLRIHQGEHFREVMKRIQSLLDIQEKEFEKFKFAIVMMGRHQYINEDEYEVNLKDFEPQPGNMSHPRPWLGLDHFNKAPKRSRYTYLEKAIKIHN
Sequence of USP7-F291N (Q93009 whole entry F291N): as the sequence (Q93009 whole entry) above, with F291N counted along it

For `CN1CCN(CCC(=O)Nc2ccc3c(=O)n(CC4(O)CCN(C(=O)[C@@H](CCCNC(=O)c5ccc6c(Cl)c7c(nc6c5)CCCC7)Cc5ccccc5)CC4)cnc3c2)CC1` [compound 6, (S)—N-(4-benzyl-5-(4-hydroxy-4-((7-(3-(4-methylpiperazin-1-yl)propanamido)-4-oxoquinazolin-3(4H)-yl)methyl)piperidin-1-yl)-5-oxopentyl)-9-chloro-5,6,7,8-tetrahydroacridine-3-carboxamide], in experiment [1], the “site of covalent modification (MS/MS)” value was “binding to the catalytic residue, C223”. In addition, the “labeling of USP7 catalytic domain by MS” value in experiment [1] (15 minutes incubation) is “Quantitative labeling of USP7”. In addition, in experiment [2], the pIC50 was 7.41. Also, in experiment [3], the MDM2 protein level result is recorded as “induced rapid degradation of MDM2 within 2 hours”; the “p53 and p21 protein levels” value is “increases in p53 and downstream p21 protein levels”. Besides, the “transcription of p53 target genes (CDKN1A, GADD45A, BAX, DDB2)” value in experiment [4] is “stimulating transcription of p53 target genes”. Besides, the “loss in potency compared to wild-type enzyme” value in experiment [5] is 100 fold. Also, in experiment [6], the growth inhibition result is reported as “potently inhibited”. For the same compound, the growth inhibition result in experiment [7] is “neither TP53-mutant A673 or TC71 was substantially inhibited”.

What is called pIC50 is −log10 of the IC50, conventionally taken in molar units.
